Assay results as given in patent publication US20110305777A1, “DIMERIC IAP ANTAGONISTS” (Tetralogic Pharmaceuticals Corporation, priority 2006, published 2011).
pKd: −log10 of the molar value.

Target: XIAP BIR-3 and cIAP-1 BIR-3 (lower Kd of the two reported)
Experiment: Fluorescence polarization binding to IAP-BIR3 (competition with AbuRPF-K(5-Fam)-NH2)
Conditions: lower of the Kd for XIAP BIR-3 and cIAP-1 BIR-3
Experimental: The binding affinities of the compounds listed in Table 1 to an IAP were determined substantially as described by Nikolovska-Coleska, Z. et. al. (Analytical Biochemistry (2004), vol. 332:261-273) using a variety of fluorogenic substrates and is reported as a Kd value. Briefly, various concentrations of IAP antagonists were mixed with 5 nM fluorescently labeled peptide (AbuRPF-K(5-Fam)-NH2) and 40 nM of an IAP-BIR3 for 15 min at RT in […] of 0.1M Potassium Phosphate buffer, pH 7.5 containing […] bovine g-globulin. Following incubation, the polarization values (mP) were measured on a Victor2V using a 485 nm excitation filter and a 520 nm emission filter. IC50 values were determined from the plot using nonlinear least-squares analysis using GraphPad Prism. […] The reported Kd values are the lower of the Kd for XIAP BIR-3 and cIAP-1 BIR-3.
The following compound of the invention was also made and tested. The reported Kd value is the lower of the Kd for XIAP BIR-3 and cIAP-1 BIR-3.

CNC(C)C(=O)NC(C(=O)N1CCC(OC)C1Cc1c(-c2[nH]c3cc(F)ccc3c2CC2C(OC)CCN2C(=O)C(NC(=O)C(C)NC)C(C)OC)[nH]c2cc(F)ccc12)C(C)OC (centres unmarked) [G]
pKd (Table 1): > 7.00

CCNC(C)C(=O)NC(C(=O)N1CCC(OC)C1Cc1c(-c2[nH]c3cc(F)ccc3c2CC2C(OC)CCN2C(=O)C(NC(=O)C(C)NCC)C(C)OC)[nH]c2cc(F)ccc12)C(C)OC (centres unmarked) [K]
pKd (Table 1): > 7.00

CCNC(C)C(=O)NC(C(=O)N1CCC(OC)C1Cc1c(-c2[nH]c3cc(F)ccc3c2CC2C(OC)CCN2C(=O)C(NC(=O)C(C)NCC)C(C)(C)C)[nH]c2cc(F)ccc12)C(C)(C)C (centres unmarked) [L]
pKd (Table 1): > 7.00

CNC(C)(C)C(=O)NC(C(=O)N1CC(O)CC1Cc1c(-c2[nH]c3cc(F)ccc3c2CC2CC(O)CN2C(=O)C(NC(=O)C(C)(C)NC)C(C)OC)[nH]c2cc(F)ccc12)C(C)OC (centres unmarked) [N]
pKd (Table 4): 6.00 to 7.00

CNC(C)C(=O)NC(C(=O)N1CCC(OC)C1Cc1c(-c2[nH]c3cc(F)ccc3c2CC2C(OC)CCN2C(=O)C(NC(=O)C(C)NC)C(C)(C)C)[nH]c2cc(F)ccc12)C(C)(C)C (centres unmarked) [I]
pKd (Table 1): > 7.00

CCC(NC)C(=O)NC(C(=O)N1CCC(OC)C1Cc1c(-c2[nH]c3cc(F)ccc3c2CC2C(OC)CCN2C(=O)C(NC(=O)C(CC)NC)C(C)(C)C)[nH]c2cc(F)ccc12)C(C)(C)C (centres unmarked) [J]
pKd (Table 1): 6.00 to 7.00

CCC(NC)C(=O)NC(C(=O)N1CCC(O)C1Cc1c(-c2[nH]c3cc(F)ccc3c2CC2C(O)CCN2C(=O)C(NC(=O)C(CC)NC)C(C)(C)C)[nH]c2cc(F)ccc12)C(C)(C)C (centres unmarked) [D]
pKd (Table 1): > 7.00

CNC(CO)C(=O)NC(C(=O)N1CCC(O)C1Cc1c(-c2[nH]c3cc(F)ccc3c2CC2C(O)CCN2C(=O)C(NC(=O)C(CO)NC)C(C)OC)[nH]c2cc(F)ccc12)C(C)OC (centres unmarked) [B]
pKd (Table 1): > 7.00

CNC(C)C(=O)NC(C(=O)N1CCC(C)C1Cc1c(-c2[nH]c3cc(F)ccc3c2CC2C(C)CCN2C(=O)C(NC(=O)C(C)NC)C(C)OC)[nH]c2cc(F)ccc12)C(C)OC (centres unmarked) [M]
pKd (Table 1): > 7.00

CCNC(C)C(=O)NC(C(=O)N1CCC(O)C1Cc1c(-c2[nH]c3cc(F)ccc3c2CC2C(O)CCN2C(=O)C(NC(=O)C(C)NCC)C(C)OC)[nH]c2cc(F)ccc12)C(C)OC (centres unmarked) [E]
pKd (Table 1): > 7.00

CCC(NC)C(=O)NC(C(=O)N1CCC(O)C1Cc1c(-c2[nH]c3cc(F)ccc3c2CC2C(O)CCN2C(=O)C(NC(=O)C(CC)NC)C(C)OC)[nH]c2cc(F)ccc12)C(C)OC (centres unmarked) [F]
pKd (Table 1): > 7.00

CNC(C)C(=O)NC(C(=O)N1CCC(O)C1Cc1c(-c2[nH]c3cc(F)ccc3c2CC2C(O)CCN2C(=O)C(NC(=O)C(C)NC)C(C)OC)[nH]c2cc(F)ccc12)C(C)OC (centres unmarked) [A]
pKd (Table 1): > 7.00

CCC(NC)C(=O)NC(C(=O)N1CCC(OC)C1Cc1c(-c2[nH]c3cc(F)ccc3c2CC2C(OC)CCN2C(=O)C(NC(=O)C(CC)NC)C(C)OC)[nH]c2cc(F)ccc12)C(C)OC (centres unmarked) [H]
pKd (Table 1): > 7.00

CNC(C)C(=O)NC(C(=O)N1CCC(O)C1Cc1c(-c2[nH]c3cc(F)ccc3c2CC2C(O)CCN2C(=O)C(NC(=O)C(C)NC)C(C)(C)C)[nH]c2cc(F)ccc12)C(C)(C)C (centres unmarked) [C]
pKd (Table 1): > 7.00
